Assay results as given in patent US20050054696A1, “Indole compounds and medicinal use thereof” (priority 2001, published 2005).

Each compound was assayed against T1, recombinant human liver glycogen phosphorylase (HLGPa) (Homo sapiens, UniProt P06737) (assay: Measurement of liver glycogen phosphorylase activity (enzyme inhibitory activity against HLGPa)). Conditions: Sf9 cell lysate expressing recombinant enzyme; reverse reaction (glycogen synthesis from G1-P), phosphate by malachite green, 60 min room temperature.
T1 construct: made in house; host or cells: Sf9 insect cells (unpurified cell lysate used as enzyme solution)
T1 sequence (P06737 1-847): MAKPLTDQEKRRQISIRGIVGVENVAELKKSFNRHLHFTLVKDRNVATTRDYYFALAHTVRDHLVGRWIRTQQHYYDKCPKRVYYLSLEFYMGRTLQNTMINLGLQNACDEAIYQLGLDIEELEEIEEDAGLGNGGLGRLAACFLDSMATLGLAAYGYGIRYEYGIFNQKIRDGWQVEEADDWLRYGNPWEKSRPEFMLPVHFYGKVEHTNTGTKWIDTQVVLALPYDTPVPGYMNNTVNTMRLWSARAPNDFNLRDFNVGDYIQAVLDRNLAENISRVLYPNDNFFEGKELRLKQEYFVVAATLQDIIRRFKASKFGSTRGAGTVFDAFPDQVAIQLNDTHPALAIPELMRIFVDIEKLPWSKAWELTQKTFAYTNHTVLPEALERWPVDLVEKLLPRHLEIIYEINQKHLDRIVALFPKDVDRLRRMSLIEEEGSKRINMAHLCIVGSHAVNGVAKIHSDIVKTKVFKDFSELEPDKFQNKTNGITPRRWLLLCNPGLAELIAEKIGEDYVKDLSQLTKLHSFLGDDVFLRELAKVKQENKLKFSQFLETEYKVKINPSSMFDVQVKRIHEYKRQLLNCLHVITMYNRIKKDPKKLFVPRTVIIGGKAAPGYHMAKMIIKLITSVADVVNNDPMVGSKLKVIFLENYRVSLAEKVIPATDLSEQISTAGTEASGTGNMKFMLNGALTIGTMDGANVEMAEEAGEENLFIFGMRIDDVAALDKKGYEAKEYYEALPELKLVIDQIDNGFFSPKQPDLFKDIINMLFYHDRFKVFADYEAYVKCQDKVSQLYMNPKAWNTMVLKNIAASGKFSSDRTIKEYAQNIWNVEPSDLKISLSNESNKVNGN
Type: biochemical
Protocol: Measurement Method of Liver Glycogen Phosphorylase Activity
The measurement of the glycogen phosphorylase activity was performed by measuring the concentration of phosphoric acic produced by a reverse reaction, that is, a reaction wherein the glycogen phosphorylase synthesizes glycogen from G1-P. A cell lysate of Sf9 cells that forcibly expressed recombinant human liver glycogen phosphorylase was diluted to a protein amount of 80 μg/mL with 1 mM imidazole-hydrochloric acid buffer (pH 7.0, containing 0.2 mM PMSF, 250 mM NaCl, 0.025% BSA) and the dilute cell lysate was used as an enzyme solution of human liver glycogen phosphorylase. As a substrate solution, 25 mM Tris-HCl buffer (pH 7.2, containing 250 mM KCl, 6.25 mM MgCl2, 6.25 mM EGTA, 1.25 mM glucose-1-phosphate, 2.5 mg/ml glycogen, 7.5 mM glucose) was used. The test drug was dissolved in 0.5% dimethyl sulfoxide (DMSO). To a mixture of the test drug (10 μl) and the substrate solution (20 μl) was added an enzyme solution (20 μl) to start the enzyme reaction. As a control, 0.5% DMSO was added instead of the test drug. One free of addition of enzyme was used as a blank. The mixture was reacted at room temperature for 60 min, and a malachite green solution (50 μl) was added. The mixture was further reacted at room temperature for 20 min and absorbance at 650 nm was measured. An enzyme solution was added to the blank simultaneously with the malachite green solution and the measurement was done in the same manner. The percent inhibition (%) of the test drug was calculated from ((value of control−value of the test drug)/(value of control−value of blank))×100 (%).
For `Cc1ccsc1C(=O)NNC(=O)c1cc2cc(Cl)ccc2[nH]1` [Example 1-89, 3-methylthiophene-2-carboxylic acid 2-(5-chloro-1H-indole-2-carbonyl)hydrazide], the IC50 was 450 nM.
Compound `O=C(NNC(=O)c1cccc(F)c1F)c1cc2cc(Cl)ccc2[nH]1` [Example 1-91, 2,3-difluorobenzoic acid 2-(5-chloro-1H-indole-2-carbonyl)hydrazide] has an IC50 of 56 nM.
`O=C(NNC(=O)c1cccc2ccccc12)c1cc2cc(Cl)ccc2[nH]1` [Example 1-92, 5-chloro-1H-indole-2-carboxylic acid 2-(naphthalene-1-carbonyl)hydrazide] was tested, and the IC50 was 71 nM.
With `O=C(NNC(=O)c1cc2cc(Cl)ccc2[nH]1)c1cc(F)c(F)c(F)c1` [Example 1-93, 3,4,5-trifluorobenzoic acid 2-(5-chloro-1H-indole-2-carbonyl)hydrazide] the IC50 was 270 nM.
`O=C(NNC(=O)c1cc(F)c(F)c(F)c1F)c1cc2cc(Cl)ccc2[nH]1` [Example 1-94, 2,3,4,5-tetrafluorobenzoic acid 2-(5-chloro-1H-indole-2-carbonyl)hydrazide] showed an IC50 of 520 nM.
Work on `Cc1ccc(C(=O)NNC(=O)c2cc3cc(Cl)ccc3[nH]2)c(N)c1` [Example 1-95, 2-amino-4-methylbenzoic acid 2-(5-chloro-1H-indole-2-carbonyl)hydrazide] yielded an IC50 of 280 nM.
In the case of `Cc1ccc(N)c(C(=O)NNC(=O)c2cc3cc(Cl)ccc3[nH]2)c1` [Example 1-97, 2-amino-5-methylbenzoic acid 2-(5-chloro-1H-indole-2-carbonyl)hydrazide], the IC50 is reported as 10 nM.
Compound `Cc1cccc(N)c1C(=O)NNC(=O)c1cc2cc(Cl)ccc2[nH]1` [Example 1-98, 2-amino-6-methylbenzoic acid 2-(5-chloro-1H-indole-2-carbonyl)hydrazide] has an IC50 of 87 nM.
`Cc1cccc(C(=O)NNC(=O)c2cc3cc(Cl)ccc3[nH]2)c1N` [Example 1-99, 2-amino-3-methylbenzoic acid 2-(5-chloro-1H-indole-2-carbonyl)hydrazide] showed an IC50 of 10 nM.
`Nc1cc(F)c(F)cc1C(=O)NNC(=O)c1cc2cc(Cl)ccc2[nH]1` [Example 1-100, 2-amino-4,5-difluorobenzoic acid 2-(5-chloro-1H-indole-2-carbonyl)hydrazide] showed an IC50 of 240 nM.
With `Nc1ccsc1C(=O)NNC(=O)c1cc2cc(Cl)ccc2[nH]1` [Example 1-101, 3-aminothiophene-2-carboxylic acid 2-(5-chloro-1H-indole-2-carbonyl)hydrazide] the IC50 was 35 nM.
`Nc1ccccc1C(=O)NNC(=O)c1cc2cc(Br)ccc2[nH]1` [Example 1-102, 2-aminobenzoic acid 2-(5-bromo-1H-indole-2-carbonyl)hydrazide] was tested, and the IC50 was > 100 nM.
Compound `Nc1cc(F)ccc1C(=O)NNC(=O)c1cc2cc(Br)ccc2[nH]1` [Example 1-103, 2-amino-4-fluorobenzoic acid 2-(5-bromo-1H-indole-2-carbonyl)hydrazide] has an IC50 of 28 nM.
In the case of `O=C(NNC(=O)c1cc2cc(Cl)ccc2[nH]1)c1cn[nH]c1` [Example 1-104, 1H-pyrazole-4-carboxylic acid 2-(5-chloro-1H-indole-2-carbonyl)hydrazide], the IC50 is reported as 21 nM.
In the case of `COC(=O)Nc1ccccc1C(=O)NNC(=O)c1cc2cc(F)ccc2[nH]1` [Example 1-105, methyl (2-(2-(5-fluoro-1H-indole-2-carbonyl)hydrazinocarbonyl)phenyl)carbamate], the IC50 is reported as 87 nM.
Compound `Cc1ccc2[nH]c(C(=O)NNC(=O)c3cccn3C)cc2c1` [Example 1-106, 1-methyl-1H-pyrrole-2-carboxylic acid 2-(5-methyl-1H-indole-2-carbonyl)hydrazide] has an IC50 of 78 nM.
Work on `Cc1ccc2[nH]c(C(=O)NNC(=O)c3ccsc3)cc2c1` [Example 1-107, thiophene-3-carboxylic acid 2-(5-methyl-1H-indole-2-carbonyl)hydrazide] yielded an IC50 of 54 nM.
Work on `O=C(NNC(=O)c1cc2sccc2[nH]1)c1cc2cc(Cl)ccc2[nH]1` [Example 1-108, 4H-thieno[3,2-b]pyrrole-5-carboxylic acid 2-(5-chloro-1H-indole-2-carbonyl)hydrazide] yielded an IC50 of 56 nM.
